Calls of active or inactive are those of the source. Rule as the data show it, for most assays here: actives have a measured EC50 and inactives only a lower limit.
Tests used:
[1] = system: Streptococcus sp. 'group A'; assay: Streptococcus pyogenes SK(-)GAS viability under kanamycin – luminescence, BacTiterGlo, confirmation, counter-screen for streptokinase expression inhibitor project, dose response (AID 1900); assay type: functional, organism-based
Streptokinase A = molecular target: T1, Streptokinase A (Streptococcus pyogenes serotype M1, UniProt P10520); assay: viability-normalized secreted streptokinase activity reduction – plasminogen activation absorbance, OD405, dose response (AID 1914); assay type: functional, Streptococcus pyogenes M1 GAS;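 also: secreted streptokinase activity via plasminogen activation per viability signal from cell pellet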
T1 sequence (P10520 whole entry): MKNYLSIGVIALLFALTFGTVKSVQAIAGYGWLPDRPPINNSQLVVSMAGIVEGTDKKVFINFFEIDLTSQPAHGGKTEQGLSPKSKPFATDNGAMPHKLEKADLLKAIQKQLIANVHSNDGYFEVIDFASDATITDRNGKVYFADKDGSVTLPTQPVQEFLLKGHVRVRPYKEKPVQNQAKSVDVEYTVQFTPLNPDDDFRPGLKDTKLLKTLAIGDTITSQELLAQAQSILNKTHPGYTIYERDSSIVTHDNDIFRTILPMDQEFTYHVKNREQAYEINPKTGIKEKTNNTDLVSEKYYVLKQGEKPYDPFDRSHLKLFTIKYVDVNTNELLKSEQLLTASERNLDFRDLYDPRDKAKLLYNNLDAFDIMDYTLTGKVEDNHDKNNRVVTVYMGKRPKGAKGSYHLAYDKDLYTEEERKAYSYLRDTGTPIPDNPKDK

Streptococcus = assay: GAS UMAA2166 growth inhibition – luminescence, BacTiterGlo, counter-screen for streptokinase expression inhibitor project, dose response (AID 1915); assay type: functional, organism-based;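 also: potency for reduction of bacterial viability or growth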
[2] = Trypanosoma cruzi growth suppression in host cells – NIH3T3 host cells, beta-gal luminescence, confirmation (AID 2044); assay type: functional, cell-based;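 also: intracellular parasites grown in NIH/3T3 mouse fibroblasts as host cells; luminescent beta-galactosidase reporter signal from transgenic T. cruzi replicating inside host cells; inhibitors lower the luminescence signal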
[3] = NIH3T3 cell viability loss – ATP luminescence, mouse fibroblasts, counter-screen, dose response (AID 2010); assay type: functional, cell-based;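 also: cells exposed to compound for about 90 hours before reading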
[4] = molecular target: T2, RNA-binding protein pos-1 (Caenorhabditis elegans, UniProt G5EF15); assay: disruptors of C. elegans POS-1 RNA interaction – biochemical, fluorescence polarization, dose response (AID 1964);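 also: purified POS-1 fused to maltose binding protein made in E. coli; potency of compounds blocking POS-1 binding to fluorescent RNA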
T2 sequence (G5EF15 whole entry): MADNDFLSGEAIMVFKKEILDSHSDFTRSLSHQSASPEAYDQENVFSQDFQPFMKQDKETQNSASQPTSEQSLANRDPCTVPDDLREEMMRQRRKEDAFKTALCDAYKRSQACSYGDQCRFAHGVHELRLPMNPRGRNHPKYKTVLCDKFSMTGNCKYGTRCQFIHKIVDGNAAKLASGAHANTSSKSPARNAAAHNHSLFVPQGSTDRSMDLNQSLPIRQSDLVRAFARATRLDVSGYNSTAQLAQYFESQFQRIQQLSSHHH

[5] = molecular target: T3, Zinc finger protein mex-5 (Caenorhabditis elegans, UniProt Q9XUB2); assay: potency of MEX-5 RNA-binding blockers – biochemical, C. elegans, fluorescence polarization, dose response (AID 1960)
T3 sequence (Q9XUB2 whole entry): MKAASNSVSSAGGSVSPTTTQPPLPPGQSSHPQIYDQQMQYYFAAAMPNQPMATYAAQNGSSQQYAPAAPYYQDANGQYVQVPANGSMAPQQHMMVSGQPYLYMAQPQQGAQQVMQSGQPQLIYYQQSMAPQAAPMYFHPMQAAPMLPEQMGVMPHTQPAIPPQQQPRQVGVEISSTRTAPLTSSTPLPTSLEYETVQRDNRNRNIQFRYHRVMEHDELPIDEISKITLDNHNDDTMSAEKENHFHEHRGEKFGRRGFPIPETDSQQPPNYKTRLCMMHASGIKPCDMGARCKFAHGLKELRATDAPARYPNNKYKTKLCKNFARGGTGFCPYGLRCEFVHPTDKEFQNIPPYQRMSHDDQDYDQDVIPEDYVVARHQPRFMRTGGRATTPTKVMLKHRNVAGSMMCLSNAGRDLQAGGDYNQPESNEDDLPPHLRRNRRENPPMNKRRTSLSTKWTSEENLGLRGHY

cells = assay type: functional
[6] = molecular target: T4, Corticotropin-releasing factor receptor 2/Corticotropin-releasing factor-binding protein (Homo sapiens, UniProt P24387+Q13324); assay: activators of CRF receptor 2 with binding protein – uHTS hits, confirmation (AID 602473); assay type: functional; details: read-out: EC50_Mean
T4 sequence (Q13324 whole entry): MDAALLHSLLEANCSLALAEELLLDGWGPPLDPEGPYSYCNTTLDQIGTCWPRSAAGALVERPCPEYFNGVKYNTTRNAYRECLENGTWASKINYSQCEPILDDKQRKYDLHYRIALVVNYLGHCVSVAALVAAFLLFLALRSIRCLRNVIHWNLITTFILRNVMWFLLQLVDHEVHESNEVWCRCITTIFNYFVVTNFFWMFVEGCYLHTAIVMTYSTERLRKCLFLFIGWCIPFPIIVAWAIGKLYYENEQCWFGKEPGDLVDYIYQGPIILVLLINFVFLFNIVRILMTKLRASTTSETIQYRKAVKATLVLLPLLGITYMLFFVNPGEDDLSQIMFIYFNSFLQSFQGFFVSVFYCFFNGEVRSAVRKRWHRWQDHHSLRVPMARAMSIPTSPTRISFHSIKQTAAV
T4 sequence (P24387 whole entry): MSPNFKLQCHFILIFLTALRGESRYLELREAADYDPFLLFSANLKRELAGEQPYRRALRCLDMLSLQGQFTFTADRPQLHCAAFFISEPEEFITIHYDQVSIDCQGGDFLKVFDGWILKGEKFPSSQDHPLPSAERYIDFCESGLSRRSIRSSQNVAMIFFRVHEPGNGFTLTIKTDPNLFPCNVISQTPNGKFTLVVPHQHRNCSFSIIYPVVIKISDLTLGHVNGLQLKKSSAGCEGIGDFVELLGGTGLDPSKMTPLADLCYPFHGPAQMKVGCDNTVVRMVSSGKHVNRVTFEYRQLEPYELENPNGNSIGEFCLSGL

Question: Which EC50 [1] does the source give for `O=S(=O)(Nc1cccc(-c2ccc(N3CCOCC3)nn2)c1)c1ccc(Cl)c(Cl)c1` here?
Answer: 12.6 µM (active)

Question: And the EC50 (Streptokinase A)?
Answer: 23.5 µM (active)

Question: And the EC50 (Streptococcus)?
Answer: 116 µM (active)

Question: Which EC50 [1] does the source give for `Brc1cc(-c2ccccc2)nc(-c2ccccc2)n1` here?
Answer: > 150 µM (not active)

Question: And the EC50 (Streptokinase A)?
Answer: > 150 µM (not active)

Question: What about the EC50 (Streptococcus) of the same compound?
Answer: > 150 µM (not active)

Question: Which EC50 [1] does the source give for `O=[N+]([O-])c1cc(S(=O)(=O)Nc2cccc(Cl)c2)ccc1N=Nc1c(O)[nH]c2ccccc12` here?
Answer: 1.69 µM (active)

Question: And the EC50 (Streptokinase A)?
Answer: 27.4 µM (active)

Question: And the EC50 [2]?
Answer: 1.31 µM (active)

Question: What about the EC50 [3] of the same compound?
Answer: > 60 µM (not active)

Question: And the EC50 (Streptococcus)?
Answer: 22.2 µM (active)

Question: With `CN1C(=O)C(=Cc2cc3ccccc3nc2O)C(=O)N(C)C1=O` as the compound, how does the EC50 [4] read?
Answer: > 300 µM (not active)

Question: And the EC50 [5]?
Answer: > 300 µM (not active)

Question: What does the source list for `COc1ccc(Nc2nc3ccccc3nc2NS(=O)(=O)c2cccs2)c(OC)c1`?
Answer: EC50 [4]: 5.66 µM (active); EC50 [5]: 49.7 µM (inconclusive)

Question: Which results are given for `CCC(C)(C)NC(=O)C(c1cccn1C)N(C(=O)Cn1nnc2ccccc21)c1ccc(OC)cc1` (configuration not stated)?
Answer: EC50 [4]: > 300 µM (not active); EC50 [5]: > 300 µM (not active)

Question: Which results are given for `COc1cccc(N2C(=O)NC(=O)/C(=C/c3ccc4c(c3)Cc3ccccc3-4)C2=O)c1`?
Answer: EC50 [4]: > 300 µM (not active); EC50 [5]: > 300 µM (not active)

Question: With `CC1CCCC(/C=N/c2ccc(C(=O)O)c(O)c2)=C1O` (configuration not stated) as the compound, how does the IC50 (cells) read?
Answer: 0.2 µM (active)

Question: With `C=CCOc1cccc(C2C(C(=O)c3ccc(C)o3)=C(O)C(=O)N2c2nnc(C)s2)c1` (configuration not stated) as the compound, how does the EC50 [4] read?
Answer: > 300 µM (not active)

Question: And the EC50 [5]?
Answer: 210 µM (active)

Question: With `N#Cc1cc(NC2CCCC2)c([N+](=O)[O-])cc1C#N` as the compound, how does the EC50 [4] read?
Answer: > 300 µM (not active)

Question: What about the EC50 [5] of the same compound?
Answer: 41.8 µM (active)

Question: For `COc1ccccc1CNC(=O)CSc1nc(=O)n(Cc2ccncc2)c2c1CCC2`, which EC50 [1] is on record?
Answer: > 150 µM (not active)

Question: What about the EC50 (Streptokinase A) of the same compound?
Answer: > 150 µM (not active)

Question: And the EC50 (Streptococcus)?
Answer: > 150 µM (not active)

Question: For `COc1ccc(OCCOC(=O)c2cccs2)cc1`, which IC50 (cells) is on record?
Answer: 23.5 µM (active)

Question: With `CC1(C)CC(=O)C2=C(C1)OC(N)=C(C#N)C21C(=O)N(CN2CCOCC2)c2ccccc21` (configuration not stated) as the compound, how does the EC50 [4] read?
Answer: > 300 µM (not active)

Question: And the EC50 [5]?
Answer: > 300 µM (not active)

Question: With `COc1ccc(C(=O)C2CCCN(C(=O)c3ccc(CSC)o3)C2)cc1F` (configuration not stated) as the compound, how does the IC50 (cells) read?
Answer: 41.5 µM (active)

Question: With `COc1ccccc1-n1c(O)cc(=O)nc1SCC(=O)Nc1ccc(C)cc1` as the compound, how does the EC50 [1] read?
Answer: 29.9 µM (active)

Question: And the EC50 (Streptokinase A)?
Answer: > 150 µM (not active)

Question: What about the EC50 (Streptococcus) of the same compound?
Answer: 118 µM (active)

Question: Which IC50 (cells) does the source give for `Cc1ccc(NC(=O)C(=O)NNC(=O)c2ccccc2C)cc1Cl` here?
Answer: 6.8 µM (active)

Question: Which IC50 (cells) does the source give for `Cc1ccc(/C=N/NC(=O)c2ccncc2)s1` here?
Answer: 0.96 µM (active)

Question: For `CCOC(=O)COc1ccc2c(c1)C(=O)CC(C)(c1cccnc1)O2` (configuration not stated), which IC50 (cells) is on record?
Answer: 11.2 µM (active)

Question: With `O=C(CN1CCC(n2nnc3cc(F)ccc32)CC1)NCCc1ccccc1` as the compound, how does the EC50 [4] read?
Answer: > 300 µM (not active)

Question: And the EC50 [5]?
Answer: > 300 µM (not active)

Question: For `CCOc1cc(/C=C(\C#N)c2nc3ccccc3[nH]2)ccc1OC(C)C(=O)O` (configuration not stated), which EC50 [4] is on record?
Answer: 78.5 µM (active)

Question: What about the EC50 [5] of the same compound?
Answer: 50.5 µM (active)

Question: Which EC50 [1] does the source give for `CCc1nnc(NS(=O)(=O)c2ccc(NCc3cc(Cl)cc(Cl)c3O)cc2)s1` here?
Answer: 29.5 µM (active)

Question: What about the EC50 (Streptokinase A) of the same compound?
Answer: 50.8 µM (active)

Question: What about the EC50 (Streptococcus) of the same compound?
Answer: > 150 µM (not active)

Question: With `CCOc1ccc(N2C(=O)NC(=O)/C(=C/Nc3ccc(N(CC)CC)cc3)C2=O)cc1` as the compound, how does the EC50 [4] read?
Answer: 151 µM (active)

Question: And the EC50 [5]?
Answer: 106 µM (active)

Question: What about the EC50 [6] of the same compound?
Answer: 10.4 µM (active)
